Several values for one entry are separate records, joined by “and”; a condition that tells them apart may be missing. Identical values can stand only once.
Legend:
THP-1 cells = assay: enhancing effect for differentiation-induction from human monocyte to macrophage (THP-1/Mφ system, MTT readout); type: cell-based; design: key: ++: enhanced 100% or more; +: enhanced 50-100%; ±: enhanced 25-50%; −: no activity; /: expressed cytoxicity; NT: not tested or under assessment; settings: in comparison with enhancing action for differentiation-induction of EM 100 μM
Procedure: In order to confirm enhancing effect for differentiation-induction of the compounds of the present invention, the enhancing effect for differentiation-induction from human monocyte to macrophage was assayed. Method is performed as follows. THP-1 cells were collected from cultured liquid by centrifugation, adjusted the concentration to 2×10^5 cells/ml using medium (RPMI 1640) and distributed into the 48-well plate at 500 μl/well. PMA solution 10 μl and sample solution 5 μl were added in each well, stirred with mild shaking and incubated at 37° C. for 72-96 hours under 5% CO2. Further MTT 0.5 mg/ml solution was added at 300 μl/well, and incubated at 37° C. for 3 hours under 5% CO2. Supernatant solution was suctioned using the injection tube, added DMSO 500 μl using automatic continuous injector to dissolve formazan completely and transferred each 100 μl to the 96-well plate. The optical absorption was measured using the plate-reader.

[1] = system: bleomycin-induced pulmonary fibrosis; assay: suppressive effect against bleomycin-induced pulmonary fibrosis (hydroxyproline levels in tissue); type: in vivo, mice; settings: BLM group: BLM 100 mg/kg tail vein day-0 only, day-28, individual mice

Compound	activities in THP-1/Mφ system, Treated conc. 0.3 μM (THP-1 cells)	activities in THP-1/Mφ system, Treated conc. 1 μM (THP-1 cells)	activities in THP-1/Mφ system, Treated conc. 3 μM (THP-1 cells)	activities in THP-1/Mφ system, Treated conc. 10 μM (THP-1 cells)	melting point [°C]	Hydroxyproline levels in tissue, Assay result [1]	Hydroxyproline levels in tissue, Weight conversion [1]	activities in THP-1/Mφ system, Treated conc. 30 μM (THP-1 cells)
CC[C@H]1O[C@]2(O)O[C@H]([C@@H](C)C3O[C@@](C)(C[C@@H]3C)[C@H](O[C@@H]3OC(C)CC(N4CCCCC4)C3O)[C@@H](C)[C@H](O[C@H]3CC(C)(OC)[C@@H](O)C(C)O3)[C@H]2C)[C@]1(C)O (some centres unmarked) [EM734, de(3′-dimethylamino)-3′-piperidino-8,9-anhydro-pseudoerythromycin A 6,9-hemiketal]	−	± (enhanced 25-50%)	+ (enhanced 50-100%)	+ (enhanced 50-100%)	128 to 130			
CC[C@H]1O[C@]2(O)O[C@H]([C@@H](C)C3O[C@@](C)(C[C@@H]3C)[C@H](O[C@@H]3OC(C)CC(N4CCCCCC4)C3O)[C@@H](C)[C@H](O[C@H]3CC(C)(OC)[C@@H](O)C(C)O3)[C@H]2C)[C@]1(C)O (some centres unmarked) [EM748, de(3′-dimethylamino)-3′-[hexahydro-1(1H)-azepinyl]-8,9-anhydro-pseudoerythromycin A 6,9-hemiketal]	−	± (enhanced 25-50%)	++ (enhanced 100% or more)	++ (enhanced 100% or more)	120 to 123			
bleomycin [BLM, reference compound]						785 µmol/L and 733 µmol/L	7.1 µmol/g and 6.4 µmol/g	
CCC(O)C(C)(O)C1OC(=O)C(C)C(OC2CC(C)(OC)C(O)C(C)O2)C(C)C(OC2OC(C)CC(N(Cc3ccccc3)Cc3ccccc3)C2O)C2(C)CC(C)=C(O2)C1C (centres unmarked) [EM733, bis-de(3′-N-methyl)-3′,3′-N,N-di-benzyl-8,9-anhydro-pseudoerythromycin A 6,9-hemiketal]	−	± (enhanced 25-50%)	± (enhanced 25-50%)					
CC[C@@H](O)[C@@](C)(O)[C@@H]1OC(=O)[C@H](C)[C@@H](O[C@H]2C[C@@](C)(OC)[C@@H](O)[C@H](C)O2)[C@H](C)[C@@H](O[C@@H]2O[C@H](C)C[C@H](N(C)CCCO)[C@H]2O)[C@@]2(C)CC(C)=C(O2)[C@@H]1C [EM744]		−	−	−				
CCCNC1CC(C)OC(OC2C(C)C(OC3CC(C)(OC)C(O)C(C)O3)C(C)C(=O)OC(C(C)(O)C(O)CC)C(C)C3=C(C)CC2(C)O3)C1O (centres unmarked) [EM730, bis-de(3′-N-methyl)-3′-N-propyl-8,9-anhydro-pseudoerythromycin A 6,9-hemiketal]	+ (enhanced 50-100%)	+ (enhanced 50-100%)	+ (enhanced 50-100%)					
C#CCN(CC#C)C1CC(C)OC(OC2C(C)C(OC3CC(C)(OC)C(O)C(C)O3)C(C)C(=O)OC(C(C)(O)C(O)CC)C(C)C3=C(C)CC2(C)O3)C1O (centres unmarked) [EM729, bis-de(3′-N-methyl)-3′,3′-N,N-di-propargyl-8,9-anhydro-pseudoerythromycin A 6,9-hemiketal]	−	± (enhanced 25-50%)	± (enhanced 25-50%)	± (enhanced 25-50%)				
C=CCN(CC=C)C1CC(C)OC(OC2C(C)C(OC3CC(C)(OC)C(O)C(C)O3)C(C)C(=O)OC(C(C)(O)C(O)CC)C(C)C3=C(C)CC2(C)O3)C1O (centres unmarked) [EM725, bis-de(3′-N-methyl)-3′,3′-N,N-diallyl-8,9-anhydro-pseudoerythromycin A 6,9-hemiketal]		−	± (enhanced 25-50%)	+ (enhanced 50-100%)				
C=CCNC1CC(C)OC(OC2C(C)C(OC3CC(C)(OC)C(O)C(C)O3)C(C)C(=O)OC(C(C)(O)C(O)CC)C(C)C3=C(C)CC2(C)O3)C1O (centres unmarked) [EM724, bis-de(3′-N-methyl)-3′-N-allyl-8,9-anhydro-pseudoerythromycin A 6,9-hemiketal]	−	+ (enhanced 50-100%)	+ (enhanced 50-100%)	++ (enhanced 100% or more)				
CCC(O)C(C)(O)C1OC(=O)C(C)C(O)C(C)C(OC2OC(C)CC(NC)C2O)C2(C)CC(C)=C(O2)C1C (centres unmarked) [EM754, de(3-O-cladinosyl) -de(3′-N-methyl) -8,9-anhydrous-pseudoerythromycin A 6,9-hemiketal]		−	−					+ (enhanced 50-100%)
CCC(O)C(C)(O)C1OC(=O)C(C)C(OC2CC(C)(OC)C(O)C(C)O2)C(C)C(OC2OC(C)CC(NC(C)=O)C2O)C2(C)CC(C)=C(O2)C1C (centres unmarked) [EM726, bis-de(3′-N-methyl)-3′-N-acetyl-8,9-anhydro-pseudoerythromycin A 6,9-hemiketal]	−	−	−	−				−
CC[C@@H](O)[C@@](C)(O)[C@@H]1OC(=O)[C@H](C)[C@@H](O[C@H]2C[C@@](C)(OC)[C@@H](O)[C@H](C)O2)[C@H](C)[C@@H](O[C@@H]2O[C@H](C)C[C@H](N3CCOCC3)[C@H]2O)[C@@]2(C)CC(C)=C(O2)[C@@H]1C [EM747, de(3′-dimethylamino)-3′-morpholino-8,9-anhydro-pseudoerythromycin A 6,9-hemiketal]			−	± (enhanced 25-50%)				++ (enhanced 100% or more)
CCNC1CC(C)OC(OC2C(C)C(OC3CC(C)(OC)C(O)C(C)O3)C(C)C(=O)OC(C(C)(O)C(O)CC)C(C)C3=C(C)CC2(C)O3)C1O (centres unmarked) [EM722, bis-de(3′-N-methyl)-3′-N-ethyl-8,9-anhydro-pseudoerythromycin A 6,9-hemiketal]	−	+ (enhanced 50-100%)	+ (enhanced 50-100%)	++ (enhanced 100% or more)				
COC1(C)CC(OC2C(C)C(=O)OC(C(C)O)C(C)C3=C(C)CC(C)(O3)C(OC3OC(C)CC(N(C)C)C3O)C2C)OC(C)C1O (centres unmarked) [EM746, de[12-(hydroxypropyl)]-8,9-anhydro-pseudo erythromycin A 6,9-hemiketal]	−	± (enhanced 25-50%)	+ (enhanced 50-100%)	+ (enhanced 50-100%)				+ (enhanced 50-100%)
CCC(O)C(C)(O)C1OC(=O)C(C)C(OC2CC(C)(OC)C(O)C(C)O2)C(C)C(OC2OC(C)CC(N(CCCCCCCCCCBr)CCCCCCCCCCBr)C2O)C2(C)CC(C)=C(O2)C1C (centres unmarked) [EM749, bis-de(3′-N-methyl)-3′,3′-N,N-di-(10-bromo-1-decanyl)-8,9-anhydro-pseudoerythromycin A 6,9-hemiketal]		± (enhanced 25-50%)	+ (enhanced 50-100%)	+ (enhanced 50-100%)				/insolule
CC[C@H]1OC(=O)[C@H](C)[C@@H](O[C@H]2C[C@@](C)(OC)[C@@H](O)[C@H](C)O2)[C@H](C)[C@@H](O[C@@H]2O[C@H](C)C[C@H](N(C)C)[C@H]2O)[C@](C)(OC)C[C@@H](C)C(=O)[C@H](C)[C@@H](O)[C@]1(C)O [CAM, reference compound]			−	+ (enhanced 50-100%)				−
CCC(O)C(C)(O)C1OC(=O)C(C)C(OC2CC(C)(OC)C(O)C(C)O2)C(C)C(OC2OC(C)CC(N)C2O)C2(C)CC(C)=C(O2)C1C (centres unmarked) [EM721, bis-de(3′-N-methyl)-8,9-anhydro-pseudo erythromycin A 6,9-hemiketal]			−	+ (enhanced 50-100%)				
CCC(O)C(C)(O)C1OC(=O)C(C)C(OC2CC(C)(OC)C(O)C(C)O2)C(C)C(OC2OC(C)CC(NCc3ccccc3)C2O)C2(C)CC(C)=C(O2)C1C (centres unmarked) [EM732, bis-de(3′-N-methyl)-3′-N-benzyl-8,9-anhydro-pseudoerythromycin A 6,9-hemiketal]	+ (enhanced 50-100%)	+ (enhanced 50-100%)	+ (enhanced 50-100%)	+ (enhanced 50-100%)				
